Data: patent US11918587B2, “Treatment of cancer with a RAF inhibitor” (Kinnate Biopharma Inc., priority 2021, dated 2024)
Like-named read-outs stand apart in the source and are kept apart here.

Experiments:
[1] = plasma exposure in mice bearing BxPC-3 and WM3629 xenografts; assay type: in vivo; settings: athymic nude, mouse, po, sulfate salt form, 24-hour period following the last dose, read-out: systemic plasma exposures (AUClast)
[2] = in vivo; settings: athymic nude, mouse, plasma, oral
[3] = test system: pERK in HMV-II cells; assay: cells
[4] = test system: pERK in NCI-H2087 cells; assay: cells; settings: Homo sapiens
[5] = test system: pERK in SK-MEL-28 cells; assay: cells; settings: Homo sapiens
[6] = mouse, in vivo
[7] = test system: pERK in NCI-H1666 cells; assay: cells; settings: Homo sapiens
[8] = test system: pERK in A-375 cells; assay: cells; settings: Homo sapiens, A-375, 1 h, read-out: pERK EC50
[9] = test system: SK-MEL-2 human melanoma cells; assay: 7-day CellTiter-Glo growth assay with binimetinib combination and synergy analysis; assay type: cell-based; settings: SK-MEL-2, 168 h
Method: SK-MEL-2 human melanoma cells were obtained from American Type Culture Collection and maintained in DMEM+10% FBS+1% penicillin/streptomycin. All cells were maintained in a humidified incubator at 37° C. with 5% carbon dioxide (CO2). […] Plates were removed from the incubator and equilibrated at room temperature for 15 minutes. Then, 100 μL of CellTiter-Glo (CTG) reagent was added into each well to be detected (at 1:1 to culture medium). The plates were kept at room temperature for 30 minutes followed by reading on a plate reader. […] Highest single agent (HSA), Bliss, and Loewe synergy models were assessed and utilized to find the most synergistic area score, where scores >10 indicate that the interaction between the two drugs is likely to be synergistic.

[10] = test system: pERK in MIA PaCa-2 cells; assay: cells; settings: Homo sapiens, MIA PaCa-2, 1 h, read-out: pERK EC50
[11] = test system: pERK in 8505C cells; assay: cells; settings: Homo sapiens
[12] = test system: pERK in IHH-4 cells; assay: cells
[13] = test system: A-375, BxPC-3, WM3629 xenografts; settings: doses up to 60 mg/kg per day
[14] = test system: pERK in BxPC-3 cells; assay: cells; settings: Homo sapiens, BXPC-3, 1 h, read-out: pERK EC50
[15] = test system: pERK in OV-90 cells; assay: cells; settings: Homo sapiens, OV-90, 1 h, read-out: pERK EC50
[16] = mouse, in vivo, po
Method: For routine monitoring, all study animals were monitored for not only tumor growth but also any abnormalities of behavior and appearance such as mobility, food and water consumption, body weight, eye appearance, and any other abnormal observations. Any mortality and/or abnormal clinical signs were recorded. Body weights of all animals were measured and recorded every other day throughout the study. The measurement of tumor size was conducted with calipers and recorded three times during the first week and twice weekly during the second and third weeks. The TV (mm^3) was estimated using the formula: TV=a×b^2/2, where “a” and “b” are long and short diameters of a tumor, respectively.

[17] = test system: pERK in DBTRG-05MG cells; assay: cells; settings: Homo sapiens
[18] = test system: pERK in SK-MEL-30 cells; assay: cells; settings: Homo sapiens
[19] = test system: SK-MEL-2 (NRAS Q61R mutant) melanoma xenograft; assay: SK-MEL-2 melanoma xenograft, Compound 1 with binimetinib; assay type: in vivo, mouse
[20] = test system: pERK in WM3629 cells; assay: cells; settings: Homo sapiens, WM3629, 1 h, read-out: pERK EC50
[21] = tolerability / body weight in A-375 xenograft study
Method: Mean tumor volumes and body weights are plotted, respectively; error bars denote standard error of mean. Percent change in tumor volume was calculated using the following formula: (TVf−TV0)/TV0×100%; where TVf=final tumor volume (at end of treatment) and TV0=initial tumor volume (at beginning of treatment).

[22] = test system: pERK in SK-MEL-2 cells; assay: cells; settings: Homo sapiens
[23] = test system: pERK in CHL-1 cells; assay: cells; settings: Homo sapiens, CHL-1, 1 h, read-out: pERK EC50
[24] = plasma exposure in mice bearing A-375 tumors; assay type: in vivo; settings: athymic nude, mouse, 15-60 mg/kg PO QD, free base, 24-hour period following the last dose, read-out: systemic plasma exposures (AUClast)
[25] = test system: pERK in COLO 800 cells; assay: cells; settings: Homo sapiens
[26] = plasma exposure in SK-MEL-2 xenograft study; settings: mouse, oral
[27] = test system: pERK in Hs 294T cells; assay: cells; settings: Homo sapiens
[28] = plasma exposure in WM3629 BID combination study (Example 6); settings: athymic BALB/c nude, mouse, oral, 3 mg/kg
[29] = test system: A-375 (Class I BRAF V600E) melanoma xenograft; settings: 60 mg/kg QD; 8 of 9 animals
[30] = test system: pERK in IPC-298 cells; assay: cells; settings: Homo sapiens
[31] = test system: pERK in NCI-H2405 cells; assay: cells; settings: Homo sapiens, NCI-H2405, 1 h, read-out: pERK EC50
[32] = test system: pERK in HCC1195 cells; assay: cells
[33] = test system: pERK in Calu-6 cells; assay: cells; settings: Homo sapiens
[34] = test system: NCI-H2405 (Class II BRAF mutant) NSCLC xenograft
[35] = test system: WM3629 (NRAS mutant, Class III BRAF mutant) melanoma xenograft; assay: WM3629 melanoma xenograft, compound 1 with binimetinib BID (Example 6); assay type: in vivo, mouse
[36] = test system: pERK in CAL-12T cells; assay: cells; settings: Homo sapiens, 1 h, read-out: pERK EC50
[37] = test system: pERK in AM-38 cells; assay: cells; settings: Homo sapiens
[38] = test system: WM3629 (Class III BRAF mutant) melanoma xenograft; assay: WM3629 melanoma xenograft, Compound 1 with binimetinib QD (Example 3C); assay type: in vivo, mouse; settings: 10 mg/kg QD single agent, 14 days
From the text: Mice were assigned to respective groups based on their starting tumor volume and body weight such that the average values were the same for each treatment group.

[39] = 3 mg/kg BID PO 14 days monotherapy

Question: What does the source list for `Cc1ccc(NC(=O)N2CC[C@@H](CC(F)(F)F)C2)cc1-c1cc(N[C@H](C)CO)nc(N2CCOCC2)c1` [Compound 1, (S)-N-(3-(2-(((R)-1-hydroxypropan-2-yl)amino)-6-morpholinopyridin-4-yl)-4-methylphenyl)-3-(2,2,2-trifluoroethyl)pyrrolidine-1-carboxamide]?
Answer: AUC(0-t) ([1]; dosed orally BID (1.5-10 mg/kg)): 4030 to 42100 ng·h/mL; AUC(0-t) ([1]; dosed orally QD (3-20 mg/kg)): 5200 to 53700 ng·h/mL; AUC(0-t) ([2]; 30 mg/kg): 31100 to 123000 ng·h/mL; EC50 [3]: 44.6 nM; EC50 [4]: 95.4 nM; EC50 [5]: 107 nM; tolerability (on-treatment body weight changes) [6]: well tolerated; EC50 [7]: 32.9 nM; EC50 [8]: 67.7 nM; EC50 ([9]; read-out: Compound 1 7-Day CTG EC50, SK-MEL-2, binimetinib 0 nM (single agent, DMSO control)): 164 nM; EC50 ([9]; read-out: Compound 1 7-Day CTG EC50, SK-MEL-2, binimetinib 2 nM): 108 nM; EC50 ([9]; read-out: Compound 1 7-Day CTG EC50, SK-MEL-2, binimetinib 7.8 nM): 106 nM; EC50 ([9]; read-out: Compound 1 7-Day CTG EC50, SK-MEL-2, binimetinib 31.3 nM): 65 nM; EC50 ([9]; read-out: Compound 1 7-Day CTG EC50, SK-MEL-2, binimetinib 125 nM): 39 nM; EC50 ([9]; read-out: Compound 1 7-Day CTG EC50, SK-MEL-2, binimetinib 500 nM): 12 nM; EC50 [10]: 685 nM; EC50 [11]: 77.1 nM; EC50 [12]: 53.1 nM; tolerability [13]: well-tolerated; EC50 [14]: 50.7 nM; EC50 [15]: 26 nM; tolerability [16]: well-tolerated; EC50 [17]: 60.5 nM; EC50 [18]: 95.9 nM; average TGI ([19]; 10 mg/kg BID 28 days): 13%; average TGI ([19]; 30 mg/kg BID 28 days): 135%; EC50 [20]: 8.8 nM; average weight loss ([21]; 60 mg/kg QD): 5.6%; weight loss of one animal during the course of treatment ([21]; 60 mg/kg cohort, recovered by end of study): > 10%; EC50 [22]: 139 nM; EC50 [23]: 580 nM; AUC(0-t) [24]: 11900 to 156000 ng·h/mL; EC50 [25]: 99.5 nM; AUC(0-t) ([26]; 30 mg/kg): 29900 to 96100 ng·h/mL; EC50 [27]: 76.9 nM; AUC(0-t) [28]: 2530 to 6750 ng·h/mL; animals exhibiting tumor regressions [29]: 89%; EC50 [30]: 267 nM; EC50 [31]: 10.1 nM; EC50 [32]: 83.3 nM; EC50 [33]: 200 nM; ΔT/ΔC ([34]; 10 mg/kg BID PO 21 days): 15%; ΔT/ΔC ([34]; 15 mg/kg BID PO 21 days): −7%; ΔT/ΔC ([35]; 1.5 mg/kg BID PO 14 days): 34%; ΔT/ΔC [35, 39]: 21%; EC50 [36]: 18.4 nM; EC50 [37]: 41.4 nM

Question: With `Cn1cnc2c(F)c(Nc3ccc(Br)cc3F)c(C(=O)NOCCO)cc21` [binimetinib, reference compound] as the compound, how does the AUC(0-t) ([2]; 10 mg/kg) read?
Answer: The AUC(0-t) was 11000 to 26700 ng·h/mL.

Question: And the tumor growth inhibition ([19]; 3 mg/kg BID single agent, 28 days)?
Answer: Its tumor growth inhibition is 23%.

Question: What about the “inhibition of tumor growth” value [38] of the same compound?
Answer: Its value is “did not lead to significant inhibition of tumor growth”.

Question: What about the AUC(0-t) ([26]; 3 mg/kg) of the same compound?
Answer: The AUC(0-t) was 7500 to 10100 ng·h/mL.

Question: And the AUC(0-t) [28]?
Answer: Its AUC(0-t) is 5400 to 5730 ng·h/mL.

Question: What about the TGI [35, 39] of the same compound?
Answer: The TGI was 37%.

Question: What about the ΔT/ΔC [35, 39] of the same compound?
Answer: Its ΔT/ΔC is 63%.

Question: And the “Final Tumor Volume” value ([35]; 3 mg/kg BID PO 14 days monotherapy, mean ± SEM)?
Answer: The value was 910 ± 69 mm^3.
